Reference: paper PMC5461540, “MOB1 Mediated Phospho-recognition in the Core Mammalian Hippo Pathway” (Molecular & Cellular Proteomics : MCP, 2017)
Numbering of substitutions follows the chain as printed. Where two headings read alike, the source gives them in different places. One block for each molecule: values may come before it. Where a SMILES comes first, the peptide text is derived from it.

Key:
MOB1A KRR→3A mutant = biological target: T1, MOB1A KRR→3A mutant (Homo sapiens, UniProt Q9H8S9, K153A/R154A/R157A); assay: Fluorescence polarization peptide binding assay, MOB1A KRR→3A mutant (K153, R154, R157 to alanine); details: Fig. 2B, MOB1A KRR→3A (K153, R154, R157 to alanine); FP, 20 nM FITC labeled peptide, pH 7.5; n = 3; N.D. = Kd could not be determined
T1 construct: MOB1A (2–216, NP_060691) wild-type and indicated MOB1A mutant proteins; 6xHis (N, cleaved yes); GST (N, cleaved yes); made in house; host or cells: E. coli BL21 (DE3) CodonPlus RIL
T1 sequence (Q9H8S9 2-216 K153A/R154A/R157A): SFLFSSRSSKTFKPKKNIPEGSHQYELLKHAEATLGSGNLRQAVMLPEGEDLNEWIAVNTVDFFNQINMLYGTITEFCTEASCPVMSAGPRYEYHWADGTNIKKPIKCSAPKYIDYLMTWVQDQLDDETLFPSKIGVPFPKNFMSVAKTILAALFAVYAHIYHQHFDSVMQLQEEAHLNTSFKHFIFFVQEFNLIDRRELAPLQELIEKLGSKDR
Source text: Human MST1 kinase domain (amino acids 2–326, corresponding to NCBI RefSeq protein NP_006273), MST2 kinase domain (2–322, NP_006272), MOB1B (2–216, NP_001231695), MOB1A (2–216, NP_060691) wild-type and indicated MOB1A mutant proteins, MOB2 (2–237, NP_001165694), MOB3A (2–217, NP_570719), MOB3B (2–216, NP_079037), MOB3C (2–216, NP_660322), MOB4 (2–225, NP_056202), MOB4^RRR→AAA (2–225), and yeast Mob1 (79–314, NP_012160) were expressed in E. coli BL21 (DE3) CodonPlus RIL cells as N-terminal dual 6xhistidine (HIS) and glutathione S-transferase (GST), Tobacco Etch Virus (TEV) cleavable, fusion proteins using a modified pETM-30 vector. MOB wild-type and mutants were purified in batch on glutathione-Sepharose resin (GE Healthcare, Uppsala, Sweden) and eluted by cleavage from the affinity tags with HIS tagged TEV protease. […]
MST1 phosphopeptides encompassing pT353 and pT367 (15-mers) used for crystallization and FITC labeled nonphosphorylated and phosphorylated MST1 T353 peptides, T367 peptides, T329-T340 peptides, T380-T387 peptides and optimized Nud1-like peptides for fluorescence polarization binding experiments were purchased from Biomatik (Cambridge, ON). […]
Twelve-point fluorescence polarization binding measurements were performed in triplicate in 384-well plate format using an Analyst HT (Artisan-Scientific, Sunnyvale, CA) reader. […]

MOB1A = biological target: T2, MOB1A (Homo sapiens, UniProt Q9H8S9); assay: Fluorescence polarization peptide binding assay, MOB1A wild-type; details: FP
T2 construct: MOB1A (2–216, NP_060691); 6xHis (N, cleaved yes); GST (N, cleaved yes); made in house; host or cells: E. coli BL21 (DE3) CodonPlus RIL
T2 sequence (Q9H8S9 2-216): T1 sequence (Q9H8S9 2-216 K153A/R154A/R157A) with A152K, A153R, A156R
Source text: Human MST1 kinase domain (amino acids 2–326, corresponding to NCBI RefSeq protein NP_006273), MST2 kinase domain (2–322, NP_006272), MOB1B (2–216, NP_001231695), MOB1A (2–216, NP_060691) wild-type and indicated MOB1A mutant proteins, MOB2 (2–237, NP_001165694), MOB3A (2–217, NP_570719), MOB3B (2–216, NP_079037), MOB3C (2–216, NP_660322), MOB4 (2–225, NP_056202), MOB4^RRR→AAA (2–225), and yeast Mob1 (79–314, NP_012160) were expressed in E. coli BL21 (DE3) CodonPlus RIL cells as N-terminal dual 6xhistidine (HIS) and glutathione S-transferase (GST), Tobacco Etch Virus (TEV) cleavable, fusion proteins using a modified pETM-30 vector. MOB wild-type and mutants were purified in batch on glutathione-Sepharose resin (GE Healthcare, Uppsala, Sweden) and eluted by cleavage from the affinity tags with HIS tagged TEV protease. TEV protease was removed from the eluted protein by subtractive immobilized-metal affinity chromatography. Cleaved protein was then concentrated and buffer exchanged by size exclusion chromatography (SEC) using a Superdex 75 120 ml column (GE Healthcare). For GST pull-downs and Far-Western analysis, the TEV cleavage step was omitted.
MST1 phosphopeptides encompassing pT353 and pT367 (15-mers) used for crystallization and FITC labeled nonphosphorylated and phosphorylated MST1 T353 peptides, T367 peptides, T329-T340 peptides, T380-T387 peptides and optimized Nud1-like peptides for fluorescence polarization binding experiments were purchased from Biomatik (Cambridge, ON). Peptide sequences used for crystallization studies are: T353, […](p)TMIEH and T367, […](p)TMVINA. All peptides used for biophysical studies are listed in supplemental Table S1.
Twelve-point fluorescence polarization binding measurements were performed in triplicate in 384-well plate format using an Analyst HT (Artisan-Scientific, Sunnyvale, CA) reader. Each 20 μl measurement condition contained 20 nM FITC labeled MST1 peptide or Nud1-like peptide and the indicated concentration of MOB proteins in 25 mM HEPES pH 7.5, 150 mM NaCl, 2 mM DTT, and 1 mg/ml bovine serum albumin (BSA). Kd values were obtained by fitting the results to a one site-specific binding model using GraphPad Prism.

yeast Mob1 = yeast Mob1 binding to Nud1 short linear phosphopeptide motif; cited from earlier work
Source text: Key to its function as a Hippo pathway activator is the ability of MOB1 to bind directly to MST1 and MST2 kinases. Recent structural studies provided key insight into the underlying mechanism of binding.

GST-MOB1B = assay: Peptide array Far-Western overlay with GST-MOB1B; format: binding, human; details: cellulose-bound 15-mer peptide SPOT array probed with 1 μg GST-MOB1B at 20 °C overnight, anti-GST HRP detection
Procedure: Cellulose-bound peptide arrays were prepared employing Fmoc solid phase peptide synthesis using a MultiPep-RSi-Spotter (INTAVIS, Köln, Germany) according to the SPOT synthesis method provided by the manufacturer, and previously described ([29]). Peptides were synthesized on amino-functionalized cellulose membranes (Whatman™ Chromatography paper Grade 1CHR, GE Healthcare Life Sciences #3001–878) and the presence of SPOTed peptides was confirmed by ultraviolet light (UV, λ = […]). Peptide sequences were chosen for each of the phosphorylated sites within the sequence encompassing residues 327 to 487 of MST1 as reported in PhosphositePlus (31/01/2014, ref 30). In addition, 15 amino acid-long peptides spanning the entire MST1 linker region (aa 327–487) were also synthesized in both phospho- and nonphosphorylated versions (for every serine, threonine, or tyrosine position; supplemental Fig. S1). Subsequent arrays were generated by alanine scanning from the pT353 and pT367 peptide sequences. The peptide arrays were soaked in 100% ethanol and blocked in 5% milk in H2O for 6 h at 20 °C. One microgram of GST-MOB1B (or GST alone) was used to probe the arrays at 20 °C overnight. Following washes with PBS plus 0.1% Tween-20, the arrays were blocked again in 5% milk for 1 h. […]

[1] = Fig. 3D summary of MST1 phosphopeptide affinities for MOB1A, read-out: Kd
[2] = 20 nM FITC labeled peptide, recombinant wild-type MOB1A, pH 7.5

Kd (MOB1A KRR→3A mutant): no measurable binding
Kd (MOB1A; 20 nM FITC labeled peptide, recombinant wild-type MOB1A, pH 7.5, read-out: Kd): 0.28 µM
Molecule: CC[C@H](C)[C@H](NC(=O)[C@H](CCSC)NC(=O)[C@@H](NC(=O)[C@H](CC(N)=O)NC(=O)[C@H](C)NC(=O)CNC(=O)[C@H](CC(=O)O)NC(=O)[C@@H](NC(=O)[C@H](CCSC)NC(=O)[C@@H](NC(=O)[C@H](CO)NC(=O)[C@H](C)NC(=O)[C@@H](N)C(C)C)[C@@H](C)O)[C@@H](C)O)[C@@H](C)OP(=O)(O)O)C(=O)N[C@@H](CCC(=O)O)C(=O)N[C@@H](Cc1c[nH]cn1)C(=O)O [pT353] (HELM PEPTIDE1{V.A.S.T.M.T.D.G.A.N.[C[C@@H](OP(=O)(O)O)[C@H](N[*:1])C(=O)[*:2]].M.I.E.H}$$$$V2.0)

Kd (MOB1A; [2]): no detectable binding
Molecule: CC[C@H](C)[C@H](NC(=O)[C@H](CCSC)NC(=O)[C@@H](NC(=O)[C@H](CC(N)=O)NC(=O)[C@H](C)NC(=O)CNC(=O)[C@H](CC(=O)O)NC(=O)[C@@H](NC(=O)[C@H](CCSC)NC(=O)[C@@H](NC(=O)[C@H](CO)NC(=O)[C@H](C)NC(=O)[C@@H](N)C(C)C)[C@@H](C)O)[C@@H](C)O)[C@@H](C)O)C(=O)N[C@@H](CCC(=O)O)C(=O)N[C@@H](Cc1c[nH]cn1)C(=O)O [T353] (H-VASTMTDGANTMIEH-OH)

Kd (MOB1A; [2]): no detectable binding
Molecule: CC[C@H](C)[C@H](NC(=O)[C@@H](NC(=O)[C@H](CCSC)NC(=O)[C@@H](NC(=O)CNC(=O)[C@H](CC(C)C)NC(=O)[C@H](CCC(N)=O)NC(=O)[C@H](CO)NC(=O)[C@@H]1CCCN1C(=O)[C@H](CC(C)C)NC(=O)[C@@H](NC(=O)[C@H](CC(=O)O)NC(=O)[C@@H](N)CC(=O)O)[C@@H](C)O)[C@@H](C)O)C(C)C)C(=O)N[C@@H](CC(N)=O)C(=O)N[C@@H](C)C(=O)O [T367] (H-DDTLPSQLGTMVINA-OH)

More lines, now with the values behind:

Molecule: TVLNNYSpTVHQKVPS
Kd (yeast Mob1): 2.4 µM

Molecule: CSCC[C@H](NC(=O)[C@H](CCC(=O)O)NC(=O)[C@H](CC(=O)O)NC(=O)CNC(=O)[C@@H](NC(=O)[C@H](C)NC(=O)[C@H](CCCNC(=N)N)NC(=O)[C@@H](NC(=O)[C@H](CCSC)NC(=O)[C@@H](NC(=O)CN)[C@@H](C)O)C(C)C)C(C)C)C(=O)NCC(=O)N[C@H](C(=O)N[C@H](C(=O)N[C@@H](CCCNC(=N)N)C(=O)O)C(C)C)[C@@H](C)OP(=O)(O)O [MST1 T329/pT340 peptide] (HELM PEPTIDE1{G.T.M.V.R.A.V.G.D.E.M.G.[C[C@@H](OP(=O)(O)O)[C@H](N[*:1])C(=O)[*:2]].V.R}$$$$V2.0)
Kd (MOB1A; [1]): 66.1 µM

Molecule: CSCC[C@H](NC(=O)[C@H](CCC(=O)O)NC(=O)[C@H](CC(=O)O)NC(=O)CNC(=O)[C@@H](NC(=O)[C@H](C)NC(=O)[C@H](CCCNC(=N)N)NC(=O)[C@@H](NC(=O)[C@H](CCSC)NC(=O)[C@@H](NC(=O)CN)[C@@H](C)OP(=O)(O)O)C(C)C)C(C)C)C(=O)NCC(=O)N[C@H](C(=O)N[C@H](C(=O)N[C@@H](CCCNC(=N)N)C(=O)O)C(C)C)[C@@H](C)O [MST1 pT329/T340 peptide] (HELM PEPTIDE1{G.[C[C@@H](OP(=O)(O)O)[C@H](N[*:1])C(=O)[*:2]].M.V.R.A.V.G.D.E.M.G.T.V.R}$$$$V2.0)
Kd (MOB1A; [1]): 46.5 µM

Molecule: AKPSFLEYFEQKEKE [MST1 residues 391 to 405]
binding signal in Far-Western peptide array (GST-MOB1B): sufficient to bind to MOB1B

Molecule: CSCC[C@H](NC(=O)[C@H](CCC(=O)O)NC(=O)[C@H](CC(=O)O)NC(=O)CNC(=O)[C@@H](NC(=O)[C@H](C)NC(=O)[C@H](CCCNC(=N)N)NC(=O)[C@@H](NC(=O)[C@H](CCSC)NC(=O)[C@@H](NC(=O)CN)[C@@H](C)OP(=O)(O)O)C(C)C)C(C)C)C(=O)NCC(=O)N[C@H](C(=O)N[C@H](C(=O)N[C@@H](CCCNC(=N)N)C(=O)O)C(C)C)[C@@H](C)OP(=O)(O)O [MST1 pT329/pT340 peptide] (HELM PEPTIDE1{G.[C[C@@H](OP(=O)(O)O)[C@H](N[*:1])C(=O)[*:2]].M.V.R.A.V.G.D.E.M.G.[C[C@@H](OP(=O)(O)O)[C@H](N[*:1])C(=O)[*:2]].V.R}$$$$V2.0)
Kd (MOB1A; Supplemental Fig. 4A, 4B, MOB1A, differentially phosphorylated MST1 15-mer peptides, mean ± SEM (n=3), read-out: kd): 49 ± 6 µM
